# Patent publication US6500802B1, “Peptidyl-2-amino-1-hydroxyalkanesulfonic acid cysteine protease inhibitors” (Cephalon, Inc., priority 1997, dated 2002)
# Counter-ions that a name gives are not always drawn. Where a SMILES comes first, the peptide text is derived from it. [ ]: non-standard residue; d: D form. The star is where a group is joined. Gly(cPent) = N[CH](C(=O)O)C1CCCC1; Cbz = O=C(OCc1ccccc1)*; Abu = CC[CH](N)C(=O)O
# Target: T1, Recombinant human calpain I (Homo sapiens, UniProt P07384)
# T1 construct: made in house
# T1 sequence (P07384 1-714): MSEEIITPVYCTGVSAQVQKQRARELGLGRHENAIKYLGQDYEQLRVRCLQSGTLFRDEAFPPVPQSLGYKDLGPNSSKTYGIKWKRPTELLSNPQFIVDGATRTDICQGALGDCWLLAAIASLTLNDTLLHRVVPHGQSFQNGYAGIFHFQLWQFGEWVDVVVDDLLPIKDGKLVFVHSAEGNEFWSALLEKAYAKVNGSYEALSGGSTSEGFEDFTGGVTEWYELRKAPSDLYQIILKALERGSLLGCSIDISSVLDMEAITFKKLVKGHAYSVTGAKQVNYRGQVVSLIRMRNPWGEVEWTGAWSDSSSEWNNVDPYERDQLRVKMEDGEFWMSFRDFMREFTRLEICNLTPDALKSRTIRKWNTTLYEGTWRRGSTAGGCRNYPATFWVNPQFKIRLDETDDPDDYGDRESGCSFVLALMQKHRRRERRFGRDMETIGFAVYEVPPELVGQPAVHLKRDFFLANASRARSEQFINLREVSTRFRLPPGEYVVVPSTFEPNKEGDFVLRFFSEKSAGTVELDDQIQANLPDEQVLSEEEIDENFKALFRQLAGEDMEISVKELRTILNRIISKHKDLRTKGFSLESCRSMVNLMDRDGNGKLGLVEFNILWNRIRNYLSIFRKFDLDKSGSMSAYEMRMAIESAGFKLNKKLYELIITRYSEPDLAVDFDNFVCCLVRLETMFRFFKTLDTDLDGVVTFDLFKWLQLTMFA
# T1 sequence (P04632 1-268 partner): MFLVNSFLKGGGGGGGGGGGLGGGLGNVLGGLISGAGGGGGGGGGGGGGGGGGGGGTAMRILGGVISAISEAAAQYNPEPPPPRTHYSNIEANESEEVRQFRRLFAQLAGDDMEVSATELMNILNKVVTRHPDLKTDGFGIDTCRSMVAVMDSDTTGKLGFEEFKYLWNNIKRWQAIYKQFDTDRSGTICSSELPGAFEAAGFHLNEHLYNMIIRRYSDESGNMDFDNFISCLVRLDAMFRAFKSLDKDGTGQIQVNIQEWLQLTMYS
# Test: Inhibition of calpain I activity (Succ-Leu-Tyr-MNA hydrolysis)
# Assay type: biochemical
# Conditions: 0.2 mM Succ-Leu-Tyr-MNA, pH 7.5
# Protocol: To evaluate inhibitory activity, stock solutions (40 concentrated) of each compound to be tested were prepared in 100% anhydrous DMSO and 5 μl of each inhibitor preparation were aliquoted into each of three wells of a 96-well plate. Recombinant human calpain I, prepared by the of Meyer et al. (Biochem. J. 1996, 314: 511-519), was into assay buffer (i.e., 50 mM Tris, 50 mM NaCl, 1 mM EDTA, 1 mM EGTA, and 5 mM β-mercaptoethanol, pH 7.5, including 0.2 mM Succ-Leu-Tyr-MNA), and 175 μl was aliquoted into the same wells containing the independent inhibitor stocks as well as to positive control wells which contained 5 μl DMSO, but no compound. To start the reaction, 20 μl of 50 mM CaCl2 in assay buffer was added to all wells of the plate, excepting three, which were used as background signal baseline controls. Substrate hydrolysis was monitored every 5 minutes for a total of 30 minutes. Substrate hydrolysis in the absence of inhibitor was linear for up to 15 minutes.
# Inhibition of calpain I activity was calculated as the percent decrease in the rate of substrate hydrolysis in the presence of inhibitor relative to the rate in its absence. Comparison between the inhibited and control rates was made within the linear range for substrate hydrolysis. The IC50 values for inhibitors (concentration yielding 50% inhibition) were determined from the percent decrease in rates of substrate hydrolysis in the presence of five to seven different concentrations of the test compound. The results were plotted as percent inhibition versus log inhibitor concentration, and the IC50 was calculated by fitting the data to the four-parameter logistic equation shown below using the program GraphPad Prism (GraphPad Software, Inc., San Diego, Calif.).
# In the equation above, the parameters a, b, c, and d are defined as follows: a is % inhibition in the absence of inhibitor, b is the slope, c is the IC50, and d is the % inhibition at an infinite concentration of inhibitor.
row,Molecule,IC50 [nM]
1,Tetrahydroisoquinoline-2-carbonyl-L-leucyl-2-amino-1-hydroxy-3-phenylpropanesulfonic acid sodium Salt [Compound 2],32
2,"O=C(N[C@H](C(=O)NC(Cc1ccccc1)C(O)S(=O)(=O)O)C1CCCC1)OCc1ccccc1 (stereo partly drawn) [Compound 3, Benzyloxycarbonyl-L-cyclopentylglycyl-2-amino-1-hydroxy-3-phenylpropanesulfonic acid sodium Salt]",15
3,"CC(C)[C@H](NC(=O)OCc1ccccc1)C(=O)NC(Cc1ccccc1)C(O)S(=O)(=O)O (stereo partly drawn) [Compound 1, Benzyloxycarbonyl-L-valyl-2-amino-1-hydroxy-3-phenylpropanesulfonic acid sodium Salt]",10

# System: not listed separately
# Test: Solubility of inhibitors in Locke's buffer
# Assay type: physicochemical
# Conditions: Locke's buffer pH 7.4; sulfonic acids: buffer added to weighed sample at 20° C.; control aldehydes: by UV absorption of filtrate
row,Molecule,Solubility [µg/mL]
1,CCC(C=O)NC(=O)C(CC(C)C)NC(=O)OCc1ccccc1 (stereo not drawn) [Cbz-Leu-Abu-H] (Cbz-Leu-[Abu]-aldehyde; configuration not given here),210
2,O=CC(Cc1ccccc1)NC(=O)C(NC(=O)OCc1ccccc1)C1CCCC1 (stereo not drawn) [Cbz-CyclopentylGly-Phe-H] (Cbz-[Gly(cPent)]-Phe-aldehyde; configuration not given here),80

# Further lines, results first:
row,Solubility [µg/mL],Molecule
1,180,CC(C)C[C@H](NC(=O)N1CCc2ccccc2C1)C(=O)N[C@H](C=O)Cc1ccccc1 [THIQ-2-CO-Leu-Phe-H]
2,180,CC(C)[C@H](NC(=O)OCc1ccccc1)C(=O)N[C@H](C=O)Cc1ccccc1 [Cbz-Val-Phe-H] (Cbz-Val-Phe-aldehyde)
